Reference: US10392428B2, “GLP-1 derivatives and uses thereof” (Novo Nordisk A/S, priority 2014, dated 2019)
Non-standard residues stand in square brackets, D forms with d. Residues, ends and D or L forms follow the SMILES beside them. Groups on a side chain read outwards from the residue. *: point of attachment. X2 = O=C(O)CCCCCCCCCCCCCCCCCCC(=O)NC[C@H]1CC[C@H](C(=O)N[C@@H](CCC(=O)NCCCC[C@H](NC(=O)CC[C@H](NC(=O)[C@H]2CC[C@H](CNC(=O)CCCCCCCCCCCCCCCCCCC(=O)O)CC2)C(=O)O)C(=O)*)C(=O)O)CC1; Desaminohistidyl = O=C(CCc1c[nH]cn1)*; AEEA = NCCOCCOCC(=O)O; Aib = CC(C)(N)C(=O)O

Legend:
human GLP-1 receptor [1] = target: T1, human GLP-1 receptor (Homo sapiens, UniProt P43220); assay: GLP-1 receptor binding: competitive binding assay (125I-GLP-1, SPA) on isolated membranes at low and high HSA
T1 construct: expressed in transfected cells; host or cells: membrane preparation from BHK cells, clone FCW467-12A (parent line BHKTS13)
Experimental: The purpose of this example is to test the receptor binding of the GLP-1 derivatives in vitro. The receptor binding is a measure of affinity of a derivative for the human GLP-1 receptor.
Each derivative is added in a series of concentrations to isolated membranes containing the human GLP-1 receptor and displacement of the labelled ligand is monitored. The receptor binding is reported as the concentration at which half of the labelled ligand is displaced from the receptor, the IC50 value.
Buffer 1 consisted of 20 mM Na-HEPES plus 10 mM EDTA and pH was adjusted to 7.4. Buffer 2 consisted of 20 mM Na-HEPES plus 0.1 mM EDTA and pH was adjusted to 7.4. Assay buffer consisted of 50 mM HEPES supplemented with 5 mM EGTA, 5 mM MgCl2, 0.005% Tween 20 and pH was adjusted to 7.4. An 8% albumin stock consisted of HSA dissolved at 8% (w/v) in assay buffer. An 0.02% albumin stock consisted of HSA dissolved at 0.02% (w/v) in assay buffer.
The cells express the human GLP-1 receptor.
The cells were grown at 5% CO2 in DMEM, 10% fetal calf serum, 1% Pen/Strep (Penicillin/Streptomycin) and 1.0 mg/ml of the selection marker G418.
To make a membrane preparation the cells were grown to approximately 80% confluence. The cells were washed twice in phosphate-buffered saline and harvested. The cells were pelleted using a brief centrifugation and the cell pellet was kept on ice. […] The homogenate was centrifuged for 15 minutes. The pellet was re-suspended (homogenised) in 10 ml buffer 2 and centrifuged. This step was repeated once more. The resulting pellet was re-suspended in buffer 2 and the protein concentration was determined. The membranes were aliquoted and stored at minus 80° C.
For the receptor binding assay in the presence of low HSA (0.005%) 50 μl of the assay buffer was added to each well of an assay plate.
For the receptor binding assay in the presence of high HSA (2%) 50 μl of the 8% albumin stock was added to each well of an assay plate.
Cell membrane aliquots were thawed and diluted to their working concentration. Fifty μl were added to each well in the assay plate.
WGA SPA beads were suspended in assay buffer at 20 mg/ml. The suspension was diluted to 10 mg/ml in assay buffer just prior to addition to the assay plate. Fifty μl were added to each well in the assay plate.
A 25 μl aliquot was reserved for measuring total counts/well.
The assay plate was incubated for 2 h at 30° C.
The assay plate was centrifuged for 10 min.
The assay plate was read in a Packard TopCount NXT instrument.
The data from the TopCount instrument were transferred to Graph Pad Prism software. Individual replicates were analysed using non-linear regression. IC50 values were calculated by the software and reported in nM. The reported values are averages of all of the measured values for each compound.

human GLP-1 receptor [2] = target: T1, human GLP-1 receptor; assay: In vitro potency: CRE luciferase reporter gene assay in BHK cells expressing the human GLP-1 receptor; type: cell-based; settings: whole cell reporter gene assay, 3 h incubation, average of at least two replicates
Experimental: The purpose of this example is to test the activity, or potency, of the GLP-1 derivatives in vitro. The in vitro potency is the measure of human GLP-1 receptor activation in a whole cell assay.
In vitro potency was determined by measuring the response of the human GLP-1 receptor in a reporter gene assay. The assay was performed in a stably transfected BHK cell line that expresses the human GLP-1 receptor and contains the DNA for the cAMP response element (CRE) coupled to a promoter and the gene for firefly luciferase (CRE luciferase). When the human GLP-1 receptor is activated it results in the production of cAMP, which in turn results in the luciferase protein being expressed. When assay incubation is completed the luciferase substrate (luciferin) is added and the enzyme converts luciferin to oxyluciferin to produce bioluminescence. The luminescence is measured as the readout for the assay.
The cells were cultured at 5% CO2 in cell culture medium. They were aliquoted and stored in liquid nitrogen. Before each assay an aliquot was taken up and washed twice in PBS before being suspended at the desired concentration in the assay specific buffer.
Assay medium consisted of DMEM w/o phenol red, 10 mM Hepes and 1χ Glutamax. The assay buffer consisted of 2% ovalbumin and 0.2% Pluronic F-68 in assay medium.
1) Cell stocks were thawed in a 37° C. water bath.
2) Cells were washed three times in PBS.
3) Cells were counted and adjusted to 5×10^3 cells/50 μl (1×10^5 cells/ml) in assay medium. A 50 μl aliquot of cells was transferred to each well in the assay plate.
4) Stocks of the test compounds and reference compounds were diluted to a concentration of 0.2 μM in assay buffer. […] 8) A 100 μl aliquot of steadylite plus reagent was added to each well of the assay plate. […] 10) Each assay plate was read in a BioTek Synergy 2 Multi-Mode Reader.
The data from the BioTek Synergy 2 Multi-Mode Reader were transferred to GraphPad Prism software. […]
A minimum of two replicates was measured for each sample. The reported EC50 values are averages of all of the measured values for each compound.

[3] = Pharmacokinetic study in minipigs (i.v.); settings: male, Göttingen, minipig, in vivo, iv; minipigs, i.v., 15 nmol/kg; harmonic mean; read-out: Terminal half-live (converted)
Experimental: The derivatives of Examples 12, 14, and 15 were dosed 2 nmol/kg. The derivatives of Examples 1 and 2 were dosed 15 nmol/kg.

[4] = High HSA IC50 (nM), high HSA (2.0% final assay concentration)

T1 sequence (P43220 24-463): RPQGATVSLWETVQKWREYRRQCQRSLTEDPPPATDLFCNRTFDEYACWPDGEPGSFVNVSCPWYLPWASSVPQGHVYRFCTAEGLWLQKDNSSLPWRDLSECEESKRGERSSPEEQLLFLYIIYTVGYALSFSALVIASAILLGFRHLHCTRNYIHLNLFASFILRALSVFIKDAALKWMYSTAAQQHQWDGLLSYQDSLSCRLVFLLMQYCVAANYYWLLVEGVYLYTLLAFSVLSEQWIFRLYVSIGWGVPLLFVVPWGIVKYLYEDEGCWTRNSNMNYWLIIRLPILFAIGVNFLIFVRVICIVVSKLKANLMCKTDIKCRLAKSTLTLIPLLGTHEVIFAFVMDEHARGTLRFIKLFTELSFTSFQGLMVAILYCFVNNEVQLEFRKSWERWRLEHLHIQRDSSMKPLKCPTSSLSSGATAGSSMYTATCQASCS

| SMILES | IC50 (human GLP-1 receptor [1]; [4]) | EC50 (human GLP-1 receptor [2]) | half-life [3] | IC50 (human GLP-1 receptor [1]; Low HSA IC50 (nM), low HSA (max. 0.001% final assay concentration)) |
| --- | --- | --- | --- | --- |
| CC[C@H](C)[C@H](NC(=O)[C@H](Cc1ccccc1)NC(=O)[C@H](CCC(=O)O)NC(=O)[C@H](CCCNC(=N)N)NC(=O)[C@H](C)NC(=O)[C@H](C)NC(=O)[C@H](CCC(N)=O)NC(=O)[C@H](CCC(=O)O)NC(=O)[C@H](CCC(=O)O)NC(=O)[C@H](CC(C)C)NC(=O)[C@H](Cc1ccc(O)cc1)NC(=O)[C@H](CO)NC(=O)[C@H](CO)NC(=O)[C@@H](NC(=O)[C@H](CC(=O)O)NC(=O)[C@H](CO)NC(=O)[C@@H](NC(=O)[C@H](Cc1ccccc1)NC(=O)[C@@H](NC(=O)CNC(=O)[C@H](CCC(=O)O)NC(=O)C(C)(C)NC(=O)CCc1cnc[nH]1)[C@@H](C)O)[C@@H](C)O)C(C)C)C(=O)N[C@@H](C)C(=O)N[C@@H](Cc1c[nH]c2ccccc12)C(=O)N[C@@H](CC(C)C)C(=O)N[C@H](C(=O)N[C@@H](CCCNC(=N)N)C(=O)NCC(=O)N[C@@H](CCCNC(=N)N)C(=O)NCC(=O)NCC(=O)N[C@@H](CCCCNC(=O)COCCOCCNC(=O)COCCOCCNC(=O)COCCOCCNC(=O)COCCOCCNC(=O)[C@H](CCCCNC(=O)CC[C@H](NC(=O)[C@H]1CC[C@H](CNC(=O)CCCCCCCCCCCCCCCCCCC(=O)O)CC1)C(=O)O)NC(=O)CC[C@H](NC(=O)[C@H]1CC[C@H](CNC(=O)CCCCCCCCCCCCCCCCCCC(=O)O)CC1)C(=O)O)C(=O)O)C(C)C [Example 6, [Imp7,Aib8,Glu22,Arg26,Arg34]-GLP-1-(7-37)-peptidyl-Gly-N{Epsilon}[2-[2-[2-[[2-[2-[2-[[2-[2-[2-[[2-[2-[2-[[(2S)-2,6-bis[[(4S)-4-carboxy-4-[[4-[(19-carboxynonadecanoylamino)methyl]cyclohexanecarbonyl]amino]butanoyl]amino]hexanoyl]amino]ethoxy]ethoxy]acetyl]amino]ethoxy]ethoxy]acetyl]amino]ethoxy]ethoxy]acetyl]amino]ethoxy]ethoxy]acetyl]Lys] (Desaminohistidyl-[Aib]EGTFTSDVSSYLEEQAAREFIAWLVRGRGGK([AEEA-AEEA-AEEA-AEEA-X2])-OH; C-terminus assumed) | 140 nM | 0.15 nM | – | – |
| CC[C@H](C)[C@H](NC(=O)[C@H](Cc1ccccc1)NC(=O)[C@H](CCC(=O)O)NC(=O)[C@H](CCCNC(=N)N)NC(=O)[C@H](C)NC(=O)[C@H](C)NC(=O)[C@H](CCC(N)=O)NC(=O)[C@H](CCC(=O)O)NC(=O)[C@H](CCC(=O)O)NC(=O)[C@H](CC(C)C)NC(=O)[C@H](Cc1ccc(O)cc1)NC(=O)[C@H](CO)NC(=O)[C@H](CO)NC(=O)[C@@H](NC(=O)[C@H](CC(=O)O)NC(=O)[C@H](CO)NC(=O)[C@@H](NC(=O)[C@H](Cc1ccccc1)NC(=O)[C@@H](NC(=O)CNC(=O)[C@H](CCC(=O)O)NC(=O)C(C)(C)NC(=O)[C@@H](N)Cc1c[nH]cn1)[C@@H](C)O)[C@@H](C)O)C(C)C)C(=O)N[C@@H](C)C(=O)N[C@@H](Cc1c[nH]c2ccccc12)C(=O)N[C@@H](CC(C)C)C(=O)N[C@H](C(=O)N[C@@H](CCCNC(=N)N)C(=O)NCC(=O)N[C@@H](CCCNC(=N)N)C(=O)N[C@@H](CCCCNC(=O)COCCOCCNC(=O)[C@H](CCCCNC(=O)COCCOCCNC(=O)COCCOCCNC(=O)CC[C@H](NC(=O)[C@H]1CC[C@H](CNC(=O)CCCCCCCCCCCCCCCCCCC(=O)O)CC1)C(=O)O)NC(=O)COCCOCCNC(=O)COCCOCCNC(=O)CC[C@H](NC(=O)[C@H]1CC[C@H](CNC(=O)CCCCCCCCCCCCCCCCCCC(=O)O)CC1)C(=O)O)C(=O)O)C(C)C [Example 1, N{Epsilon-37}-[2-[2-[2-[[(2S)-2,6-bis[[2-[2-[2-[[2-[2-[2-[[(4S)-4-carboxy-4-[[4-[(19-carboxynonadecanoylamino)methyl]cyclohexanecarbonyl]amino]butanoyl]amino]ethoxy]ethoxy]acetyl]amino]ethoxy]ethoxy]acetyl]amino]hexanoyl]amino]ethoxy]ethoxy]acetyl]-[Aib8,Glu22,Arg26,Arg34,Lys37]-GLP-1-(7-37)-peptide] | 140 nM | – | 162 h | – |
| CC[C@H](C)[C@H](NC(=O)[C@H](Cc1ccccc1)NC(=O)[C@H](CCC(=O)O)NC(=O)[C@H](CCCNC(=N)N)NC(=O)[C@H](C)NC(=O)[C@H](C)NC(=O)[C@H](CCC(N)=O)NC(=O)[C@H](CCC(=O)O)NC(=O)[C@H](CCC(=O)O)NC(=O)[C@H](CC(C)C)NC(=O)[C@H](Cc1ccc(O)cc1)NC(=O)[C@H](CO)NC(=O)[C@H](CO)NC(=O)[C@@H](NC(=O)[C@H](CC(=O)O)NC(=O)[C@H](CO)NC(=O)[C@@H](NC(=O)[C@H](Cc1ccccc1)NC(=O)[C@@H](NC(=O)CNC(=O)[C@H](CCC(=O)O)NC(=O)C(C)(C)NC(=O)[C@@H](N)Cc1c[nH]cn1)[C@@H](C)O)[C@@H](C)O)C(C)C)C(=O)N[C@@H](C)C(=O)N[C@@H](Cc1c[nH]c2ccccc12)C(=O)N[C@@H](CC(C)C)C(=O)N[C@H](C(=O)N[C@@H](CCCNC(=N)N)C(=O)NCC(=O)N[C@@H](CCCNC(=N)N)C(=O)N[C@@H](CCCCNC(=O)COCCOCCNC(=O)COCCOCCNC(=O)[C@H](CCCCNC(=O)CC[C@H](NC(=O)[C@H]1CC[C@H](CNC(=O)CCCCCCCCCCCCCCCCCCC(=O)O)CC1)C(=O)O)NC(=O)CC[C@H](NC(=O)[C@H]1CC[C@H](CNC(=O)CCCCCCCCCCCCCCCCCCC(=O)O)CC1)C(=O)O)C(=O)O)C(C)C [Example 11, N{Epsilon-37}-[2-[2-[2-[[2-[2-[2-[[(2S)-2,6-bis[[(4S)-4-carboxy-4-[[4-[(19-carboxynonadecanoylamino)methyl]cyclohexanecarbonyl]amino]butanoyl]amino]hexanoyl]amino]ethoxy]ethoxy]acetyl]amino]ethoxy]ethoxy]acetyl]-[Aib8,Glu22,Arg26,Arg34,Lys37]-GLP-1-(7-37)-peptide] | 150 nM | 0.13 nM | – | 1.5 nM |
| CC[C@H](C)[C@H](NC(=O)[C@H](Cc1ccccc1)NC(=O)[C@H](CCC(=O)O)NC(=O)[C@H](CCCNC(=N)N)NC(=O)[C@H](C)NC(=O)[C@H](C)NC(=O)[C@H](CCC(N)=O)NC(=O)[C@H](CCC(=O)O)NC(=O)[C@H](CCC(=O)O)NC(=O)[C@H](CC(C)C)NC(=O)[C@H](Cc1ccc(O)cc1)NC(=O)[C@H](CO)NC(=O)[C@H](CO)NC(=O)[C@@H](NC(=O)[C@H](CC(=O)O)NC(=O)[C@H](CO)NC(=O)[C@@H](NC(=O)[C@H](Cc1ccccc1)NC(=O)[C@@H](NC(=O)CNC(=O)[C@H](CCC(=O)O)NC(=O)C(C)(C)NC(=O)[C@@H](N)Cc1c[nH]cn1)[C@@H](C)O)[C@@H](C)O)C(C)C)C(=O)N[C@@H](C)C(=O)N[C@@H](Cc1c[nH]c2ccccc12)C(=O)N[C@@H](CC(C)C)C(=O)N[C@H](C(=O)N[C@@H](CCCNC(=N)N)C(=O)NCC(=O)N[C@@H](CCCNC(=N)N)C(=O)N[C@@H](CCCCNC(=O)[C@@H](N)CCCCNC(=O)[C@@H](N)CCCCNC(=O)[C@H](CCCCNC(=O)CC[C@H](NC(=O)[C@H]1CC[C@H](CNC(=O)CCCCCCCCCCCCCCCCCCC(=O)O)CC1)C(=O)O)NC(=O)CC[C@H](NC(=O)[C@H]1CC[C@H](CNC(=O)CCCCCCCCCCCCCCCCCCC(=O)O)CC1)C(=O)O)C(=O)O)C(C)C [Example 9, N{Epsilon-37}-[(2S)-2-amino-6-[[(2S)-2-amino-6-[[(2S)-2,6-bis[[(4S)-4-carboxy-4-[[4-[(19-carboxynonadecanoylamino)methyl]cyclohexanecarbonyl]amino]butanoyl]amino]hexanoyl]amino]hexanoyl]amino]hexanoyl]-[Aib8,Glu22,Arg26,Arg34,Lys37]-GLP-1-(7-37)-peptide] | 150 nM | – | – | – |
